Measured values reported in ChEMBL document CHEMBL1201862, “PubChem BioAssay data set” (2004).
Calls of active or inactive are those of the source.

Tests used:
[1] = molecular target: T1, Voltage-gated N-type calcium channel alpha-1B subunit/Amyloid beta A4 precursor protein-binding family A member 1 (Homo sapiens, UniProt Q00975+Q02410); test: disruptors of Mint-PDZ/N-type channel peptide interaction – biochemical, HTRF, set 2, SAR follow-up (AID 434980); assay type: functional
[2] = molecular target: T1, Voltage-gated N-type calcium channel alpha-1B subunit/Amyloid beta A4 precursor protein-binding family A member 1; test: disruptors of Mint-PDZ/N-type channel peptide interaction – biochemical, HTRF, SAR follow-up (AID 2489); assay type: functional
[3] = molecular target: Heat shock protein HSP 90-alpha (Homo sapiens, UniProt P07900); assay type: functional, organism-based
[4] = molecular target: C-C chemokine receptor type 6 (Homo sapiens, UniProt P51684); test: antagonism of CCR6 beta-arrestin recruitment – cell-based, luminescent beta-arrestin readout, dose response (AID 504728); assay type: functional
Vero = test: cells; assay type: functional; details: Chlorocebus sabaeus
Beta-galactosidase = Beta-galactosidase (Escherichia coli, UniProt Q8VNN2); test: detection-enzyme interference by beta-gal modulators – biochemical, E. coli enzyme, set 3, artefact control for CCR6 antagonist project, dose response (AID 504712); assay type: functional
[5] = molecular target: Neurotensin receptor type 1 (Homo sapiens, UniProt P30989); assay type: functional;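 note: Image-based confirmatory dose-response assay measuring agonist activity at NTR1; NTR1-expressing U2OS osteosarcoma cells imaged for beta-arrestin GFP spot formation; agonist potency where compounds increase beta-arrestin recruitment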
[6] = Luminescence Cell-Based Dose Retest to Confirm Inhibitors of Cancer Stem Cells. [Related pubchem assays (depositor defined):AID2717, AID2721]; assay type: functional; details: Homo sapiens
[7] = molecular target: T2, Ubiquitin-conjugating enzyme E2 N (Homo sapiens, UniProt P61088); assay type: functional;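 note: Dose-response confirmation in a TR-FRET assay detecting UBC13-driven polyubiquitin chain formation, inhibition measured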
T2 sequence (P61088 whole entry): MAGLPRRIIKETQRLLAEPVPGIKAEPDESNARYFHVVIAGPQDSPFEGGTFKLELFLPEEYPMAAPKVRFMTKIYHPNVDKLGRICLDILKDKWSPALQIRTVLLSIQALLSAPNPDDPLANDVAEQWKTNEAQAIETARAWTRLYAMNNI

INS1 = test: INS-1E survival protection against cytokine death – cell-based, luminescence, retest, dose response (AID 449756); assay type: functional; details: Rattus norvegicus;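 note: cell death triggered by IL-1 beta plus TNF-alpha plus IFN-gamma mixture; protective hits raise ATP signal compared with cytokine alone wells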
[8] = molecular target: G2/mitotic-specific cyclin-B1 (Homo sapiens, UniProt P14635); test: HeLa cell cycle G2/M accumulation – FACS, mechanism study for Wee1 degradation inhibitor project, late-stage follow-up, panel member Cyclin B Degradation (AID 2088)
Wee1-like protein kinase = Wee1-like protein kinase (Homo sapiens, UniProt P30291); test: HeLa cell cycle G2/M accumulation – FACS, mechanism study for Wee1 degradation inhibitor project, late-stage follow-up, panel member Wee1 Degradation (AID 2088)
Prothrombin = Prothrombin (Bos taurus, UniProt P00735); test: thrombin protease inhibitors – biochemical, fluorescence polarization, uHTS hits, dose response (AID 602369); assay type: functional
[9] = molecular target: T3, COUP transcription factor 2 (Homo sapiens, UniProt P24468); test: Luminescence-based cell-based high throughput dose response assay to identify inhibitors of COUP-TFII (NR2F2).; assay type: functional;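 note: HEK293 cells transiently cotransfected with COUP-TFII expression vector and reporter; luciferase reporter luminescence driven by COUP-TFII from the pX2-168 reporter plasmid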
T3 sequence (P24468 whole entry): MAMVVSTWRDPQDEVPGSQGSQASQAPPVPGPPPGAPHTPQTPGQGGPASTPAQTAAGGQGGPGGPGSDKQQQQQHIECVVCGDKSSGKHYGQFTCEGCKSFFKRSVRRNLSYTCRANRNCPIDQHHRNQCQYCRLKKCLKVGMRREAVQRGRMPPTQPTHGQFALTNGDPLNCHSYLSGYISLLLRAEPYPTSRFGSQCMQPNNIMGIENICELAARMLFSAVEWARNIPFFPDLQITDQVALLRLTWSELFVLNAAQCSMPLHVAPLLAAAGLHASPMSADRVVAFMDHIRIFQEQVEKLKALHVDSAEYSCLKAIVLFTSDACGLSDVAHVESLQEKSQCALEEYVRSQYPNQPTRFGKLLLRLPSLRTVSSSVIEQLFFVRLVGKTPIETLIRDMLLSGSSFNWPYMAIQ

[10] = molecular target: 26S proteasome non-ATPase regulatory subunit 14 (Homo sapiens, UniProt O00487); test: inhibition of proteasome subunit RPN11 – biochemical, fluorescence polarization, uHTS hits, confirmation (AID 602368); assay type: functional
[11] = HGIII-sPLA2 enzyme inhibition potency – biochemical, QFRET, IC50, dose response (AID 743457);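 note: green fluorescence rise as the enzyme cleaves BODIPY PC-A2 in liposomes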
[12] = molecular target: Botulinum neurotoxin type F (Clostridium botulinum, UniProt P30996); test: High-throughput multiplex microsphere dose response for inhibitors of toxin protease, specifically Botulinum neurotoxin light chain F protease, compounds from Cherry Pick 02.; assay type: functional; details: read-out: EC50_MICROM
[13] = molecular target: 72 kDa type IV collagenase (Homo sapiens, UniProt P08253); test: Dose Response validation of uHTS RPN11 inhibitor hits using a MMP-2 Fluorescence assay.; assay type: functional
[14] = molecular target: Matrix metalloproteinase-14 (Homo sapiens, UniProt P50281); test: Dose Response confirmation of uHTS hits for a small molecule inhibitors of MT1-MMP activation in a fluorescence assay set 1.; assay type: functional
[15] = molecular target: T4, Histone-lysine N-methyltransferase NSD2 (Homo sapiens, UniProt O96028); assay type: biochemical
T4 sequence (O96028 whole entry): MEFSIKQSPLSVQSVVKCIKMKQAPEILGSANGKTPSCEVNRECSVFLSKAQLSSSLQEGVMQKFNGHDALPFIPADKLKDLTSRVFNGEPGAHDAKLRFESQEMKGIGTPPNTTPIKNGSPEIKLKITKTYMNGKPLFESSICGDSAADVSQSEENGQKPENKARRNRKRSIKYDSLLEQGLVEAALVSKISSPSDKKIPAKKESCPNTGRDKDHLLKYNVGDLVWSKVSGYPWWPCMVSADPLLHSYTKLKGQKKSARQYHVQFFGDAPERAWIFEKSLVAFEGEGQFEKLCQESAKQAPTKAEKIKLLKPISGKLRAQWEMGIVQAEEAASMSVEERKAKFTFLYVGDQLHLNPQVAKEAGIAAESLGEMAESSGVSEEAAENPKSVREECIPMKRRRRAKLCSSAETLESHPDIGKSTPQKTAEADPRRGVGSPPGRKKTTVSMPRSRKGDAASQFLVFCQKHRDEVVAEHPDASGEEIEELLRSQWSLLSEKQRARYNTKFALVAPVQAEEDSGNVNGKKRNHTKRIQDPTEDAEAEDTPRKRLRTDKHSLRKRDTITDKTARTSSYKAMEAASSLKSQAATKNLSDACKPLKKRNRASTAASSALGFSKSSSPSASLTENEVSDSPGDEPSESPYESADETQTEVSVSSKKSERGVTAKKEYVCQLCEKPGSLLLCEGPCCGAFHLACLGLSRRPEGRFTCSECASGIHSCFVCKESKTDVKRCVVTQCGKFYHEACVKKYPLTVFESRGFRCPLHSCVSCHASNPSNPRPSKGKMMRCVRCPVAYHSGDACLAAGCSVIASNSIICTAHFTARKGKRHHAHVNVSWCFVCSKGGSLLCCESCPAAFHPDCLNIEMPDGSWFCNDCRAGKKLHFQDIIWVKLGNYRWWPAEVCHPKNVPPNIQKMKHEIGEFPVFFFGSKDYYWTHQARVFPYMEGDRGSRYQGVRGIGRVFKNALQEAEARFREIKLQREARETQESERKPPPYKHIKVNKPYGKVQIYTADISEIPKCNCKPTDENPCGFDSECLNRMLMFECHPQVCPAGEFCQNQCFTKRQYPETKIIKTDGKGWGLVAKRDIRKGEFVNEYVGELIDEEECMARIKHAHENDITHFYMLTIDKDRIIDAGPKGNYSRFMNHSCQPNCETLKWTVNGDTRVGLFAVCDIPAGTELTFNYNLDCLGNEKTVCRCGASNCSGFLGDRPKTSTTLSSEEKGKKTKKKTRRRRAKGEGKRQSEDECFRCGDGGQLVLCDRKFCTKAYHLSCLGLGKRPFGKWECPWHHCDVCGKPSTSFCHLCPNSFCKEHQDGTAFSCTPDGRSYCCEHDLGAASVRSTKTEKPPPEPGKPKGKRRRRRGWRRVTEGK

[16] = molecular target: Glutathione-S-transferase (Schistosoma japonicum, UniProt Q26513); test: GST-antibody interaction or FRET quenching – biochemical, TR-FRET, artefact control for Vif-APOBEC3G degradation inhibitor project, dose response (AID 1117362); assay type: functional
[17] = molecular target: Glucose-6-phosphate 1-dehydrogenase (Homo sapiens, UniProt P11413); test: inhibition of Homo sapiens G6PD, dose series – biochemical, fluorescence, selectivity assay for P. falciparum G6PD inhibitor project, dose response (AID 504792); assay type: functional
[18] = molecular target: Cystic fibrosis transmembrane conductance regulator/Golgi-associated PDZ and coiled-coil motif-containing protein (Homo sapiens, UniProt P13569+Q9HD26); test: potency against CAL PDZ-peptide interaction – biochemical, fluorescence polarization, Cerulean-tagged CAL PDZ, cherry-picks, dose response (AID 504773)
[19] = viability loss in THP-1 monocytes – THP-1 cells, cytotoxicity control for Vif-APOBEC3G degradation inhibitor project, dose response (AID 1117359); assay type: functional; details: THP-1
Nonstructural protein 1 = Nonstructural protein 1 (Influenza A virus, UniProt Q194T2); assay type: functional, Influenza A virus (A/California/07/2009(H1N1))
Protein Tat = Protein Tat (Human immunodeficiency virus type 1 group M subtype B (isolate HXB2)(HIV-1), UniProt P04608); assay type: functional;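 note: tat binding to TAR RNA read out by fluorescence polarization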

T1 sequence (Q00975 whole entry): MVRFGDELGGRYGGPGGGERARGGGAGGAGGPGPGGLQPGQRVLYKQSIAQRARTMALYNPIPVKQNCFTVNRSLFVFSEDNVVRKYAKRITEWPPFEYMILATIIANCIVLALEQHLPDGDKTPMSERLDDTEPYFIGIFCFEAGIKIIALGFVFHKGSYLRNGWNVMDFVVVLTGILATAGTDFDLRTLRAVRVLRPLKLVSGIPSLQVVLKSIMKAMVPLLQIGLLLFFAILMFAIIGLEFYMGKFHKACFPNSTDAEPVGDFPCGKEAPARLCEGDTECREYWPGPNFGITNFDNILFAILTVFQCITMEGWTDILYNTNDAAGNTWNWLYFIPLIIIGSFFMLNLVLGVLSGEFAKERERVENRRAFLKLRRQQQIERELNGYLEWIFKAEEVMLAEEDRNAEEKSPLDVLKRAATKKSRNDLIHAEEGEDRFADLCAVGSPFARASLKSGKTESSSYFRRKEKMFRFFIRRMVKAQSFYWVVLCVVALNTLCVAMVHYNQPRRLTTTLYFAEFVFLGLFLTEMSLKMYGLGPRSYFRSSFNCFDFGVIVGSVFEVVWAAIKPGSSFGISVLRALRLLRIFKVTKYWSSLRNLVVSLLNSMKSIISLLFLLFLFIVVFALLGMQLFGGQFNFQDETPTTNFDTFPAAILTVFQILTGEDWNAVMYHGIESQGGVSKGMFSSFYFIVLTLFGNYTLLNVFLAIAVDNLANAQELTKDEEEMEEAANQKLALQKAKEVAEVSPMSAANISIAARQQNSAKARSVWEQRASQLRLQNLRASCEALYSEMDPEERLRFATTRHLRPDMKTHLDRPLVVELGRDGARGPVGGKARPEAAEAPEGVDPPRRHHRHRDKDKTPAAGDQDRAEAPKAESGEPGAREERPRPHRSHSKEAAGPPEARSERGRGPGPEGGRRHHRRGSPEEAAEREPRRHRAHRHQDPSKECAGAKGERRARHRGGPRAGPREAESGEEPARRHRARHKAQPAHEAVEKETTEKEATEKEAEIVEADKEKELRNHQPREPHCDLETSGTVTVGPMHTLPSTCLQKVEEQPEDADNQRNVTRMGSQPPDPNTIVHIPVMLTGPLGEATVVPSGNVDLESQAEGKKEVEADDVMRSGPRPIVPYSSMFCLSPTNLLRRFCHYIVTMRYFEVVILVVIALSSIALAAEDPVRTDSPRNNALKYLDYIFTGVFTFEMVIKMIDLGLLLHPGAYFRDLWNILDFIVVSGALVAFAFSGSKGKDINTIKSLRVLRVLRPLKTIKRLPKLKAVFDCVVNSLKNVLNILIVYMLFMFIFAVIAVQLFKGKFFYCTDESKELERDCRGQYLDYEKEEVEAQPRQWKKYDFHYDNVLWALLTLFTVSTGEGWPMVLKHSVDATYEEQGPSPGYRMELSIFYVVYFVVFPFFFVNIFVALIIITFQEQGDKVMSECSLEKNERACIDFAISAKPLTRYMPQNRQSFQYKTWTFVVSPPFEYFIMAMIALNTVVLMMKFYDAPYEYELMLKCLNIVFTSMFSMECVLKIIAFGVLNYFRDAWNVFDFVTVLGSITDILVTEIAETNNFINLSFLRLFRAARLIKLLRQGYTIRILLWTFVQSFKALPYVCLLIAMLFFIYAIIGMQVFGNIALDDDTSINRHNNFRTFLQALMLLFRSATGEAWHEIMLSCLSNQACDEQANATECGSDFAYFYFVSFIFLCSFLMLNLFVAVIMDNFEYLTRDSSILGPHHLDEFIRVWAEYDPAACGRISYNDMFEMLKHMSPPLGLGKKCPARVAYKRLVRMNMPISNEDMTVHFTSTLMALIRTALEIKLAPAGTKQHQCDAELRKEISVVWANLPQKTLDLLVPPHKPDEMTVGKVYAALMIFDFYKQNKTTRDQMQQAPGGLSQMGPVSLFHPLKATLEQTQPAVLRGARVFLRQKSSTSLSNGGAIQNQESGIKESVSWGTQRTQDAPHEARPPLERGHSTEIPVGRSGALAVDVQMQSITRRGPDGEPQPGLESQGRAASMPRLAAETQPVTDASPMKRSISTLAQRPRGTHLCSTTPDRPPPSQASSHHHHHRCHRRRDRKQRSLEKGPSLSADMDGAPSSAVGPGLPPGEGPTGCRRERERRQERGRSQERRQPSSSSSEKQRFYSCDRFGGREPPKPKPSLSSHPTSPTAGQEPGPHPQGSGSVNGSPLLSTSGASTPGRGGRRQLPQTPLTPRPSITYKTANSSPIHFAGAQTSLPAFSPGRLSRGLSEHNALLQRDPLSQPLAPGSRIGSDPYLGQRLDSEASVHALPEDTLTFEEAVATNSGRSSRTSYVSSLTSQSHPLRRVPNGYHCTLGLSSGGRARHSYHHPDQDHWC
T1 sequence (Q02410 whole entry): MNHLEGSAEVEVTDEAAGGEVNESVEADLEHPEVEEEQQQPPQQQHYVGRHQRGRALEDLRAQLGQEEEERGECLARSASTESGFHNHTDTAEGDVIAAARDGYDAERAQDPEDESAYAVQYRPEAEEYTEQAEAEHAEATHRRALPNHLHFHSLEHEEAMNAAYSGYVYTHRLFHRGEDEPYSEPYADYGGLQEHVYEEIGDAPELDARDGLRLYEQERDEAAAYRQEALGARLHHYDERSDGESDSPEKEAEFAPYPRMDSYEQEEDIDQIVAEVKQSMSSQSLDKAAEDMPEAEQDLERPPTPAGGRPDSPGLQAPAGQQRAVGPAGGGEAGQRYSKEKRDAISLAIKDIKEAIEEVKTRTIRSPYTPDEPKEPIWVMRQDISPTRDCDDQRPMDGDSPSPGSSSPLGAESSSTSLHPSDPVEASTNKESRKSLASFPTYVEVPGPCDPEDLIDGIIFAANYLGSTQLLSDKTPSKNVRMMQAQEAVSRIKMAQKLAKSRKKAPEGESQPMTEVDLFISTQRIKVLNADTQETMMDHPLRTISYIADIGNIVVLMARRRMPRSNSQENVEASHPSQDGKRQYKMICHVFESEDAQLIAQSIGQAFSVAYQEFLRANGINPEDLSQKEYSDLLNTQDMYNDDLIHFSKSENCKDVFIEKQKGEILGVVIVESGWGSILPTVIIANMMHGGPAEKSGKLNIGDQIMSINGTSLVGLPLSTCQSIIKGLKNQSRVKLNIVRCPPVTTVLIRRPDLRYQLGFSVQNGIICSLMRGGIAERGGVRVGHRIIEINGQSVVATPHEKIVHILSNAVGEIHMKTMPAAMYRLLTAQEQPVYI
Sequence of Wee1-like protein kinase (P30291 whole entry): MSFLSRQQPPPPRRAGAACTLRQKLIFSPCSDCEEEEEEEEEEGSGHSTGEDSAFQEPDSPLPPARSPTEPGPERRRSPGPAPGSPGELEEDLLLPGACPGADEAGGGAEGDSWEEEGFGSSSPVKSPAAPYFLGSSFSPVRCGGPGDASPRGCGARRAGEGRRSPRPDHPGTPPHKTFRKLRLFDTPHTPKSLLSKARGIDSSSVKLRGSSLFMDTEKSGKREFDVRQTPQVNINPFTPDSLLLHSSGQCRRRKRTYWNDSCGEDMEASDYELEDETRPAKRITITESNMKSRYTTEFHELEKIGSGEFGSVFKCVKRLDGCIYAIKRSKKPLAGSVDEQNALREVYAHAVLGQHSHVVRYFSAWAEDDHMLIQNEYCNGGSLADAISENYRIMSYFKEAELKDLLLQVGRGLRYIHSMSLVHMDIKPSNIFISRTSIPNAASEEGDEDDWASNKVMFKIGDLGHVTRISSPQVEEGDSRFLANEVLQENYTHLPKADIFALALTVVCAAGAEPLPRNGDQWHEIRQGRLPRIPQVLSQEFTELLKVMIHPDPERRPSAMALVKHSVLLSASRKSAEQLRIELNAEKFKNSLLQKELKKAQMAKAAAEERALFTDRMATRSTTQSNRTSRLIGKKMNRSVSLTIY
Sequence of Botulinum neurotoxin type F (P30996 1-436 limits assumed): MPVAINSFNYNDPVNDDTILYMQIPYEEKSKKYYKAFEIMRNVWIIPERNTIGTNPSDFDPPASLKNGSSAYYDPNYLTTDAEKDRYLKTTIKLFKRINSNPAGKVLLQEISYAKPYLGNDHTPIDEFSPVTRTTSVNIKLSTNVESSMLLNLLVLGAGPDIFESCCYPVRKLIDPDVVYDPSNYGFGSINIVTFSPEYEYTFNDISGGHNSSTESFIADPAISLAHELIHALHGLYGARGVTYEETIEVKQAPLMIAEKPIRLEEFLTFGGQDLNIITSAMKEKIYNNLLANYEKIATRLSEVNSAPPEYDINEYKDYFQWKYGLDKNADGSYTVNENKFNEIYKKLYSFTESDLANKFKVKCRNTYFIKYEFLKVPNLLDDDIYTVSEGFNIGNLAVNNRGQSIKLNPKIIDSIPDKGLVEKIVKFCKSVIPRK
Sequence of Nonstructural protein 1 (Q194T2 whole entry): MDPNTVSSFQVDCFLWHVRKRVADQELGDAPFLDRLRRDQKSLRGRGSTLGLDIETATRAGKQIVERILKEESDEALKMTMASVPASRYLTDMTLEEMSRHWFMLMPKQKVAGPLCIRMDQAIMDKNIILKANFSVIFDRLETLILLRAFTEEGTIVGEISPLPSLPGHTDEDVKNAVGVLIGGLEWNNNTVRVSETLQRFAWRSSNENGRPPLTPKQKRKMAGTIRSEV
Sequence of Glucose-6-phosphate 1-dehydrogenase (P11413 whole entry): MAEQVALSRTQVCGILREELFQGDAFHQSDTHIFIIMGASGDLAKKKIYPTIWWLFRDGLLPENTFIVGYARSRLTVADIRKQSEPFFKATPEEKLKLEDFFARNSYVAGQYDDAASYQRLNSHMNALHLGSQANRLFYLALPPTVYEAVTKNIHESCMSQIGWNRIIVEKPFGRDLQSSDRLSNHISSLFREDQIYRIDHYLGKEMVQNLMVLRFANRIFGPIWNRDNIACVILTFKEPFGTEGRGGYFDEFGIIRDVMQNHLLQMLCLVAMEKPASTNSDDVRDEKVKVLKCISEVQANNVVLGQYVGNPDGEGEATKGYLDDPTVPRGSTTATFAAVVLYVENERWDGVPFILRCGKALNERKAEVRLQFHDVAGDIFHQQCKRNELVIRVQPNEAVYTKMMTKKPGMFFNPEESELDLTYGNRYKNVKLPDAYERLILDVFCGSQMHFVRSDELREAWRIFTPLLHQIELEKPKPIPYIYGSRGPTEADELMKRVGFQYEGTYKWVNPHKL

SMILES: O=C(NCCc1ccccn1)c1cc(-c2ccco2)nc2ccccc12
- IC50 [1]: > 56.8 µM (inactive)
- IC50 [2]: > 56.8 µM (inactive)

SMILES: O=[N+]([O-])c1cccc(C=NNc2ccc3ccccc3n2)c1O
- AC50 [3]: 2.76 µM (active)
- IC50 [4]: > 66.6 µM (inactive)
- CC50 (Vero): 1.44 µM (active)
- IC50 (Beta-galactosidase): > 66.6 µM (inactive)

SMILES: CC(C)C[C@H]1CN=C(Nc2ccccc2)N1CC1CCC(C(C)(C)C)CC1 (some centres not stated)
- EC50 [5]: 15.7 µM (active)
- AC50 [6]: 5.02 µM (active)
- IC50 [7]: > 20 µM (inactive)
- AC50 (INS1): 6.54 µM (active)

SMILES: CC(C)c1ccc(NC(=O)CCCOc2cc(=O)n(C)c3ccccc23)cc1
- EC50 [8]: > 49.7 µM (inactive)
- EC50 (Wee1-like protein kinase): > 49.7 µM (inactive)

SMILES: COc1cc(N(C)C)ccc1C=c1c2ccccc2n2c1cc(-c1ccccc1)[n+]2C
- IC50 (Prothrombin): 11.8 µM (active)
- AC50 [3]: 7.6 µM (active)
- IC50 [9]: 4.89 µM (active)
- IC50 [10]: 24.9 µM (active)
- IC50 [11]: 19.2 µM (inactive)
- EC50 [12]: > 20 µM (inactive)
- IC50 [13]: > 100 µM (inactive)
- IC50 [14]: 14.6 µM (active)
- AC50 [15]: 3.07 µM (active)
- IC50 [16]: 3.69 µM (active)
- IC50 [17]: > 80 µM (inactive)
- AC50 [18]: 39.9 µM (active)
- CC50 [19]: 0.22 µM (active)
- IC50 (Nonstructural protein 1): 3.2 µM (active)
- IC50 (Protein Tat): > 100 µM (active)
